Paper PMC6627374, “Effects of the Pentapeptide P33 on Memory and Synaptic Plasticity in APP/PS1 Transgenic Mice: A Novel Mechanism Presenting the Protein Fe65 as a Target” (International Journal of Molecular Sciences, 2019)
Where a SMILES comes first, the peptide text is derived from it.

Tested on: pT^668-APP
Test: Western blot, pT^668-APP level in brain
Format: in vivo, mouse
Conditions: 5 mg∙kg^−1 i.p., five days per week, six months; HC and CTX
Description: For this study, three-month-old male and female WT and APP/PS1 mice (n = 37) were used. Four groups were defined: WT-vehicle (physiological saline) (male n = 4; female n = 6), WT-P33 (male n = 6; female n = 5), APP/PS1-vehicle (male n = 3; female n = 5), and APP/PS1-P33 (male n = 6; female n = 2). Animals were subjected to intraperitoneal (i.p.) injections of P33 (5 mg∙kg^−1) for five days per week, over a course of six months. The mice were kept in groups under constant temperature (23 ± 0.5 °C), lighting (12-h/12-h light/dark cycle, lights on at 7:00 a.m.), and humidity (~50%). Standard mouse chow and tap water were supplied ad libitum. All behavioral experiments were performed in the light period. Handling was done daily at the same time.
Nine-month-old mice (three animals per group) were euthanized via cervical dislocation. […] To quantify the level of Aβ in the mice, we used a sandwich ELISA Kit (Innotest Amyloid-[…]) from Innogenetics (Gent, Belgium), following the instructions of the manufacturer. The absorbance values were measured at 450 nm on a 96-well plate reader (NOVOstar OPTIMA, BMG Labtech, Offenburg, Germany). […]
The results of spine density and immunohistochemistry experiments were calculated with one-way ANOVA followed by Fisher’s LSD post hoc tests. […] Data were analyzed with SPSS (IBM SPSS Statistics 24), and were expressed as the mean ± standard error of the mean (SEM). […]

`C[C@@H](N)C(=O)N1CCC[C@@H]1C(=O)N[C@H](C)C(=O)N1CCC[C@@H]1C(=O)N[C@H](CCC(=O)O)C(N)=O` [P33] (HELM PEPTIDE1{[dA].[dP].[dA].[dP].[dE].[am]}$$$$V2.0) was tested. Which “pT^668-APP level, effect of P33 (in words)” value did it give?
The value was “had no significant effect on the pT^668-APP level”.
